We go through one compound from patent publication US11554182B2, “Macrocyclic complexes of alpha-emitting radionuclides and their use in targeted radiotherapy of cancer” (CORNELL UNIVERSITY, priority 2017, dated 2023).

The nature of data set [1]: Kinetic inertness of ^225Ac complex: transmetalation challenge with La^3+. Format: physicochemical. Conditions: 50-fold excess of La^3+, macropa 0.59 μM, RT, over 7 days. As to the method:
General. Stock solutions of La(NO3)3 (0.001 M or 0.1 M) were prepared in H2O. To the radiolabeled samples containing macropa (10 μL of 10^−5 M stock; 1.0×10^−10 moles) or DOTA (10 μL of 10^−3 M stock; 1.0×10^−8 moles) and ^225Ac (10 μL, 26 kBq) in NH4OAc buffer (pH 6, 0.15 M, 150 μL), a 50-fold mole excess of La^3+ was added (5 μL of 0.001 M or 0.1 M stock were added to solutions containing macropa and DOTA, respectively). The solutions were kept at room temperature and analyzed by iTLC at several time points over the course of 8 days. The iTLC plates were developed using citric acid (0.05 M, pH 5) as the eluent. Under these conditions, [^225Ac(macropa)]^+ and [^225Ac(DOTA)]^− remained at the baseline (RF=0) and any unchelated ^225Ac (^225Ac-citrate) migrated with the solvent front (RF=1). Percent of complex remaining intact was calculated by integrating area under the peaks on the radiochromatogram and dividing the counts associated with the ^225Ac-complex (RF=0) by the total counts integrated along the length of the iTLC plate.
The long half-life of ^225Ac necessitates its stable complex retention in vivo to avoid off-target damage to normal tissues arising from the release of free ^225Ac^3+. Furthermore, the stability of ^225Ac complexes against transmetalation and transchelation needs to be high. […]

Data set [2] is described as follows: Stability of [^225Ac(macropa)]^+ in human serum (radio-TLC). Format: in vitro ADME. Here is the method:
[…]. [^225Ac(macropa)]^+ and [^225Ac(DOTA)]^− were prepared using 10^−5 M and 10^−3 M stock solutions (10 μL) of macropa and DOTA, respectively, to give final ligand concentrations of 5.9×10^−7 M (macropa) and 5.9×10^−5 M (DOTA). After confirming a radiochemical yield of >90% by TLC using 0.4 M sodium citrate (pH 4) containing 10% MeOH as the mobile phase, 160 μL of human serum (an equal volume based on labeling reaction volume) were added to each radiolabeled solution. A control solution was also prepared in which water was substituted for ligand. The solutions were monitored over the course of 8 days by iTLC. The plates were developed with EDTA (50 mM, pH 5) as the eluent. Under these conditions, [^225Ac(macropa)]^+ and [^225Ac(DOTA)]^− complexes remained at the baseline (RF=0) and any ^225Ac (^225Ac-EDTA) that had been transchelated by serum migrated with the solvent front (RF=1). Percent of complex remaining intact was calculated.
The long half-life of ^225Ac necessitates its stable complex retention in vivo to avoid off-target damage to normal tissues arising from the release of free ^225Ac^3+. Furthermore, the stability of ^225Ac complexes against transmetalation and transchelation needs to be high. To determine the kinetic inertness, [^225Ac(macropa)]^+ was challenged with La^3+ because of the established high affinity of macropa for this metal ion. […]

For `O=C([O-])c1cccc(CN2CCOCCOCCN(Cc3cccc(C(=O)[O-])n3)CCOCCOCC2)n1.[225Ac+3]` [[^225Ac(macropa)]^+], the “^225Ac complex remaining intact” value in data set [1] was 98%. For the same compound, in data set [2], the “time ^225Ac^3+ remains complexed in human serum” value is given as “at least 8 days”.
